Results on 27 molecules are retold here after patent US8134015B2, “Compound inhibiting in vivo phosphorous transport and medicine containing the same” (Kyowa Hakko Kirin Co., Ltd., priority 2003, dated 2012).

The target in this experiment is T1, rat NaPi-2b (Rattus norvegicus, UniProt Q9JJ09).
T1 construct: expressed in transfected cells; host or cells: Xenopus oocytes injected with cRNA
T1 sequence (Q9JJ09 1-695): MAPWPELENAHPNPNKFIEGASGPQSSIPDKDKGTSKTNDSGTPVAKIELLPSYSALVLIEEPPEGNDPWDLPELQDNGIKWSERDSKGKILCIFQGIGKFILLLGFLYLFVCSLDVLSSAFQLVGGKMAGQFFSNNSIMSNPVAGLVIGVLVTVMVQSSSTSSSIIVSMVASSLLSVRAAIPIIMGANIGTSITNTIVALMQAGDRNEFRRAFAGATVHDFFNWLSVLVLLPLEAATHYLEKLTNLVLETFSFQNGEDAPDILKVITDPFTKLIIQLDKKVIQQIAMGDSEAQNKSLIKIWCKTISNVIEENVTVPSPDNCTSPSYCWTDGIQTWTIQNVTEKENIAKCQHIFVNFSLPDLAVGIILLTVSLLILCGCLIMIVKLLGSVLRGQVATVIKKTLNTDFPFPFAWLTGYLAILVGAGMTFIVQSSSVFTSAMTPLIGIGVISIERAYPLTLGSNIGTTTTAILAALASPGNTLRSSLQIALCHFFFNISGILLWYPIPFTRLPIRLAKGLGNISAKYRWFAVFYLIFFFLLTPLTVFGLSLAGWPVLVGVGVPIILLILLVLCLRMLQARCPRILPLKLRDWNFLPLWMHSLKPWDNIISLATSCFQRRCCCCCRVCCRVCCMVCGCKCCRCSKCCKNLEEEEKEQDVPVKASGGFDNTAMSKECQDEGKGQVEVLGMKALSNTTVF
Briefly: Sodium-dependent phosphate uptake of Xenopus oocytes which expressed NaPi-2b (32P). Format: cell-based. As to conditions: Xenopus oocytes expressing rat NaPi-2b, 32P radioactive phosphorus; read-out: IC50 (phosphate uptake inhibitory activity). Summed up:
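Read-out is 32P phosphate uptake into Xenopus oocytes expressing rat intestinal NaPi-2b (cRNA injection, 2-day culture). Inhibition at 300 μM and 100 μM was derived from a single inhibition curve and given as percent.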

Structures are written as SMILES.

`O=C(Nc1ccc(Br)cc1C(=O)N/N=C/c1cccc(F)c1)c1ccc(CN2CCC(N3CCCCC3)CC2)cc1` [Compound 312, 4-[1,4′]Bipiperidinyl-1′-ylmethyl-N-[4-bromo-2-(3-fluoro-benzylidene-hydrazinocarbonyl)-phenyl]-benzamide]: the IC50 worked out at 3.31 µM.
Regarding `O=C(Nc1ccc(Br)cc1C(=O)N/N=C/c1ccc(Cl)c(C(F)(F)F)c1)c1ccc(CN2CCC(N3CCCCC3)CC2)cc1` [Compound 313, 4-[1,4′]Bipiperidinyl-1′-ylmethyl-N-[4-bromo-2-(4-chloro-3-trifluoromethyl-benzylidene-hydrazinocarbonyl)-phenyl]-benzamide], the IC50 is 1.24 µM.
Next, `COc1ccc(/C=N/NC(=O)c2cc(Br)ccc2NC(=O)c2ccc(CN3CCC(N4CCCCC4)CC3)cc2)cc1` [Compound 314, 4-[1,4′]Bipiperidinyl-1′-ylmethyl-N-[4-bromo-2-(4-methoxy-benzylidene-hydrazinocarbonyl)-phenyl]-benzamide]: 3.39 µM; `Cc1ccc(/C=N/NC(=O)c2cc(Br)ccc2NC(=O)c2ccc(CN3CCN(CCO)CC3)cc2)cc1C` [Compound 316, N-[4-Bromo-2-(3,4-dimethyl-benzylidene-hydrazinocarbonyl)-phenyl]-4-[4-(2-hydroxy-ethyl)-piperazin-1-ylmethyl]-benzamide]: 4.71 µM.
The same measure for `Cc1ccc(/C=N/NC(=O)c2cc(Br)ccc2NC(=O)c2ccc(CN3CCN(CCO)CC3)cc2)cc1` [Compound 317, N-[4-Bromo-2-(4-methyl-benzylidene-hydrazinocarbonyl)-phenyl]-4-[4-(2-hydroxy-ethyl)-piperazin-1-ylmethyl]-benzamide]: 5.02 µM; for `Cc1cccc(/C=N/NC(=O)c2cc(Br)ccc2NC(=O)c2ccc(CN3CCN(CCO)CC3)cc2)c1` [Compound 318, N-[4-Bromo-2-(3-methyl-benzylidene-hydrazinocarbonyl)-phenyl]-4-[4-(2-hydroxy-ethyl)-piperazin-1-ylmethyl]-benzamide]: 2.49 µM.
The same measure for `O=C(Nc1ccc(Br)cc1C(=O)N/N=C/c1ccc(F)cc1)c1ccc(CN2CCN(CCO)CC2)cc1` [Compound 319, N-[4-Bromo-2-(4-fluoro-benzylidene-hydrazinocarbonyl)-phenyl]-4-[4-(2-hydroxy-ethyl)-piperazin-1-ylmethyl]-benzamide]: 9.76 µM; for `O=C(Nc1ccc(Br)cc1C(=O)N/N=C/c1cccc(F)c1)c1ccc(CN2CCN(CCO)CC2)cc1` [Compound 320, N-[4-Bromo-2-(3-fluoro-benzylidene-hydrazinocarbonyl)-phenyl]-4-[4-(2-hydroxy-ethyl)-piperazin-1-ylmethyl]-benzamide]: 4.09 µM.
Consider `O=C(Nc1ccc(Br)cc1C(=O)N/N=C/c1ccc(Cl)c(C(F)(F)F)c1)c1ccc(CN2CCN(CCO)CC2)cc1` [Compound 321, N-[4-Bromo-2-(4-chloro-3-trifluoromethyl-benzylidene-hydrazinocarbonyl)-phenyl]-4-[4-(2-hydroxy-ethyl)-piperazin-1-ylmethyl]-benzamide], for which the IC50 was found to be 2.66 µM.
The same measure for `COc1ccc(/C=N/NC(=O)c2cc(Br)ccc2NC(=O)c2ccc(CN3CCN(CCO)CC3)cc2)cc1` [Compound 322, N-[4-Bromo-2-(4-methoxy-benzylidene-hydrazinocarbonyl)-phenyl]-4-[4-(2-hydroxy-ethyl)-piperazin-1-ylmethyl]-benzamide]: 5.93 µM.
Next, `COc1cccc(/C=N/NC(=O)c2cc(Br)ccc2NC(=O)c2ccc(CN3CCN(CCO)CC3)cc2)c1` [Compound 323, N-[4-Bromo-2-(3-methoxy-benzylidene-hydrazinocarbonyl)-phenyl]-4-[4-(2-hydroxy-ethyl)-piperazin-1-ylmethyl]-benzamide]: 4.69 µM; `Cc1ccc(/C=N/NC(=O)c2cc(Br)ccc2NC(=O)c2ccc(CN3CCC(O)CC3)cc2)cc1C` [Compound 324, N-[4-Bromo-2-(3,4-dimethyl-benzylidene-hydrazinocarbonyl)-phenyl]-4-(4-hydroxy-piperidin-1-ylmethyl)-benzamide]: 4.43 µM.
Turning to `Cc1ccc(/C=N/NC(=O)c2cc(Br)ccc2NC(=O)c2ccc(CN3CCC(O)CC3)cc2)cc1` [Compound 325, N-[4-Bromo-2-(4-methyl-benzylidene-hydrazinocarbonyl)-phenyl]-4-(4-hydroxy-piperidin-1-ylmethyl)-benzamide], the IC50 amounted to 2.56 µM.
The same measure for `Cc1cccc(/C=N/NC(=O)c2cc(Br)ccc2NC(=O)c2ccc(CN3CCC(O)CC3)cc2)c1` [Compound 326, N-[4-Bromo-2-(3-methyl-benzylidene-hydrazinocarbonyl)-phenyl]-4-(4-hydroxy-piperidin-1-ylmethyl)-benzamide]: 2.1 µM.
Regarding `O=C(Nc1ccc(Br)cc1C(=O)N/N=C/c1ccc(F)cc1)c1ccc(CN2CCC(O)CC2)cc1` [Compound 327, N-[4-Bromo-2-(4-fluoro-benzylidene-hydrazinocarbonyl)-phenyl]-4-(4-hydroxy-piperidin-1-ylmethyl)-benzamide], the half-maximal inhibitory concentration (IC50) is 5.12 µM.
The same measure for `O=C(Nc1ccc(Br)cc1C(=O)N/N=C/c1cccc(F)c1)c1ccc(CN2CCC(O)CC2)cc1` [Compound 328, N-[4-Bromo-2-(3-fluoro-benzylidene-hydrazinocarbonyl)-phenyl]-4-(4-hydroxy-piperidin-1-ylmethyl)-benzamide]: 1.15 µM.
For the molecule `O=C(Nc1ccc(Br)cc1C(=O)N/N=C/c1ccc(Cl)c(C(F)(F)F)c1)c1ccc(CN2CCC(O)CC2)cc1` [Compound 329, N-[4-Bromo-2-(4-chloro-3-trifluoromethyl-benzylidene-hydrazinocarbonyl)-phenyl]-4-(4-hydroxy-piperidin-1-ylmethyl)-benzamide], the IC50 is 5.63 µM.
Next, `COc1ccc(/C=N/NC(=O)c2cc(Br)ccc2NC(=O)c2ccc(CN3CCC(O)CC3)cc2)cc1` [Compound 330, N-[4-Bromo-2-(4-methoxy-benzylidene-hydrazinocarbonyl)-phenyl]-4-(4-hydroxy-piperidin-1-ylmethyl)-benzamide]: 10.7 µM; `COc1cccc(/C=N/NC(=O)c2cc(Br)ccc2NC(=O)c2ccc(CN3CCC(O)CC3)cc2)c1` [Compound 331, N-[4-Bromo-2-(3-methoxy-benzylidene-hydrazinocarbonyl)-phenyl]-4-(4-hydroxy-piperidin-1-ylmethyl)-benzamide]: 15.8 µM; `Cc1ccc(/C=N/NC(=O)c2cc(Br)ccc2NC(=O)c2ccc(CN3CCC(CO)CC3)cc2)cc1C` [Compound 332, N-[4-Bromo-2-(3,4-dimethyl-benzylidene-hydrazinocarbonyl)-phenyl]-4-(4-hydroxymethyl-piperidin-1-ylmethyl)-benzamide]: 2.87 µM.
The same measure for `Cc1ccc(/C=N/NC(=O)c2cc(Br)ccc2NC(=O)c2ccc(CN3CCC(CO)CC3)cc2)cc1` [Compound 333, N-[4-Bromo-2-(4-methyl-benzylidene-hydrazinocarbonyl)-phenyl]-4-(4-hydroxymethyl-piperidin-1-ylmethyl)-benzamide]: 17.2 µM; for `Cc1cccc(/C=N/NC(=O)c2cc(Br)ccc2NC(=O)c2ccc(CN3CCC(CO)CC3)cc2)c1` [Compound 334, N-[4-Bromo-2-(3-methyl-benzylidene-hydrazinocarbonyl)-phenyl]-4-(4-hydroxymethyl-piperidin-1-ylmethyl)-benzamide]: 7.69 µM.
As for `O=C(Nc1ccc(Br)cc1C(=O)N/N=C/c1ccc(F)cc1)c1ccc(CN2CCC(CO)CC2)cc1` [Compound 335, N-[4-Bromo-2-(4-fluoro-benzylidene-hydrazinocarbonyl)-phenyl]-4-(4-hydroxymethyl-piperidin-1-ylmethyl)-benzamide], the IC50 amounted to 5.86 µM.
For `O=C(Nc1ccc(Br)cc1C(=O)N/N=C/c1cccc(F)c1)c1ccc(CN2CCC(CO)CC2)cc1` [Compound 336, N-[4-Bromo-2-(3-fluoro-benzylidene-hydrazinocarbonyl)-phenyl]-4-(4-hydroxymethyl-piperidin-1-ylmethyl)-benzamide], the IC50 is 16.6 µM.
The same measure for `O=C(Nc1ccc(Br)cc1C(=O)N/N=C/c1ccc(Cl)c(C(F)(F)F)c1)c1ccc(CN2CCC(CO)CC2)cc1` [Compound 337, N-[4-Bromo-2-(4-chloro-3-trifluoromethyl-benzylidene-hydrazinocarbonyl)-phenyl]-4-(4-hydroxymethyl-piperidin-1-ylmethyl)-benzamide]: 1.39 µM; for `COc1ccc(/C=N/NC(=O)c2cc(Br)ccc2NC(=O)c2ccc(CN3CCC(CO)CC3)cc2)cc1` [Compound 338, N-[4-Bromo-2-(4-methoxy-benzylidene-hydrazinocarbonyl)-phenyl]-4-(4-hydroxymethyl-piperidin-1-ylmethyl)-benzamide]: 19 µM.
Next, `COc1cccc(/C=N/NC(=O)c2cc(Br)ccc2NC(=O)c2ccc(CN3CCC(CO)CC3)cc2)c1` [Compound 339, N-[4-Bromo-2-(3-methoxy-benzylidene-hydrazinocarbonyl)-phenyl]-4-(4-hydroxymethyl-piperidin-1-ylmethyl)-benzamide]: 12.8 µM.
